Data taken from ChEMBL document CHEMBL1134225, “Potent synthetic inhibitors of tyrosyl tRNA synthetase derived from C-pyranosyl analogues of SB-219383” (Bioorg Med Chem Lett, 2001).

Assays:
[1] = Inhibitory activity against Staphylococcus aureus tyrosyl tRNA synthetase (YRS) using aminoacylation assay
[2] = Inhibitory activity against Staphylococcus aureus tyrosyl tRNA synthetase (YRS) using aminoacylation assay; NI = No inhibition
[3] = Inhibitory activity (3 uM) against Staphylococcus aureus tyrosyl tRNA synthetase (YRS) using aminoacylation assay

N[C@@H](Cc1ccc(O)cc1)C(=O)N[C@H](C(=O)O)[C@@H]1OC[C@H](O)[C@H](O)[C@H]1O
IC50 [1]: 0.1 µM

N[C@@H](Cc1ccc(O)cc1)C(=O)NC(C(=O)O)[C@@H]1O[C@H](CO)[C@@H](O)[C@H](O)[C@H]1O (stereo partly drawn)
IC50 [2]: Not Active

N[C@@H](Cc1ccc(O)cc1)C(=O)N[C@H](C(=O)O)[C@@H]1OC[C@H](O)[C@@H](O)[C@H]1O
inhibition [3]: 71%
